# Measured values as given in PubChem BioAssay AID330 (DTP/NCI, 2004).
# Inconclusive results and toxic doses are left out.
# System: P388 leukemia ip, CD2F1 mice, survival T/C
# Test: NCI In Vivo Anticancer Drug Screen. Data for tumor model P388 Leukemia (intraperitoneal) in CD2F1 (CDF1) mice
# Conditions: endpoint: median survival time, higher = longer survival
# How it was run: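 Mice carrying the transplanted tumor received test compound or vehicle. Survival was recorded in each group, and the value is the treated-group measurement divided by that of the vehicle-treated control group.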
# [1] = dose: 50.0 mg/kg/injection, schedule: Q01DX005 (ip), vehicle: saline with Tween-80
# [2] = dose: 100.0 mg/kg/injection, schedule: Q01DX005 (ip), vehicle: saline with Tween-80
# [3] = dose: 50.0 mg/kg/injection, schedule: Q01DX005 (ip), vehicle: Klucel (hydroxypropylcellulose) (HPC)
# [4] = dose: 100.0 mg/kg/injection, schedule: Q01DX005 (ip), vehicle: Klucel (hydroxypropylcellulose) (HPC)
# [5] = dose: 200.0 mg/kg/injection, schedule: Q01DX005 (ip), vehicle: Klucel (hydroxypropylcellulose) (HPC)
# [6] = dose: 120.0 mg/kg/injection, schedule: Q01DX005 (ip), vehicle: saline with Tween-80
# [7] = dose: 240.0 mg/kg/injection, schedule: Q01DX005 (ip), vehicle: saline with Tween-80
# [8] = dose: 25.0 mg/kg/injection, schedule: Q01DX005 (ip), vehicle: Klucel (hydroxypropylcellulose) (HPC)
# [9] = dose: 60.0 mg/kg/injection, schedule: Q01DX005 (ip), vehicle: saline with Tween-80
compound,measurement,setting,value
CCCC1CCCCN1Cc1ccccc1 (centres undefined),T/C,[1],107 % of control
same,T/C,[2],104 % of control
O=C1OC(c2ccccc2)(c2ccccc2)CC12CC(c1ccccc1)(c1ccccc1)OC2=O,T/C,[1],91 % of control
same,T/C,[2],94 % of control
Nc1nc(N)nc(-c2ccccc2Cl)n1,T/C,"dose: 50.0 mg/kg/injection, schedule: Q01DX009 (ip), vehicle: saline",117 % of control
same,T/C,"dose: 100.0 mg/kg/injection, schedule: Q01DX009 (ip), vehicle: saline",93 % of control
same,T/C,"dose: 200.0 mg/kg/injection, schedule: Q01DX009 (ip), vehicle: saline",117 % of control
Clc1ccc(CNc2ncnc3[nH]ncc23)cc1Cl,T/C,"dose: 100.0 mg/kg/injection, schedule: Q04DX003 (ip), vehicle: saline with Tween-80",104 % of control
same,T/C,"dose: 200.0 mg/kg/injection, schedule: Q04DX003 (ip), vehicle: saline with Tween-80",100 % of control
same,T/C,"dose: 400.0 mg/kg/injection, schedule: Q04DX003 (ip), vehicle: saline with Tween-80",95 % of control
O=C1c2ccccc2-c2cn(-c3ccccc3)c3cccc1c23,T/C,[3],103 % of control
same,T/C,[4],100 % of control
O=C(NC(=S)Nc1ccccc1)c1ccccc1,T/C,"dose: 9.4 mg/kg/injection, schedule: Q01DX009 (ip), vehicle: Klucel (hydroxypropylcellulose) (HPC)",106 % of control
same,T/C,"dose: 18.75 mg/kg/injection, schedule: Q01DX009 (ip), vehicle: Klucel (hydroxypropylcellulose) (HPC)",101 % of control
same,T/C,"dose: 37.5 mg/kg/injection, schedule: Q01DX009 (ip), vehicle: Klucel (hydroxypropylcellulose) (HPC)",94 % of control
same,T/C,"dose: 75.0 mg/kg/injection, schedule: Q01DX009 (ip), vehicle: Klucel (hydroxypropylcellulose) (HPC)",96 % of control
CCC1C(c2c[nH]c3ccccc23)N(C=O)CCC1(O)C(C)=O (centres undefined),T/C,"dose: 4.38 mg/kg/injection, schedule: Q01DX005 (ip), vehicle: Klucel (hydroxypropylcellulose) (HPC)",99 % of control
same,T/C,"dose: 8.75 mg/kg/injection, schedule: Q01DX005 (ip), vehicle: Klucel (hydroxypropylcellulose) (HPC)",99 % of control
same,T/C,"dose: 17.5 mg/kg/injection, schedule: Q01DX005 (ip), vehicle: Klucel (hydroxypropylcellulose) (HPC)",96 % of control
Cc1ccc(NC(=S)NNC(=S)NNc2ccccc2)cc1C,T/C,[4],95 % of control
same,T/C,[5],101 % of control
same,T/C,"dose: 400.0 mg/kg/injection, schedule: Q01DX005 (ip), vehicle: Klucel (hydroxypropylcellulose) (HPC)",106 % of control
CCOc1ccc2c(c1)c(C)cc(C)[n+]2CC,T/C,"dose: 6.25 mg/kg/injection, schedule: Q04DX003 (ip), vehicle: saline with Tween-80",97 % of control
same,T/C,"dose: 12.5 mg/kg/injection, schedule: Q04DX003 (ip), vehicle: saline with Tween-80",99 % of control
Cc1ccc(NC(=O)CC(=O)CC(C)C)cc1C,T/C,[1],107 % of control
same,T/C,[6],113 % of control
same,T/C,[7],114 % of control
C=C1CC2(CCCCC2C(C)(C)C)OC1=O (centres undefined),T/C,"dose: 100.0 mg/kg/injection, schedule: Q04DX002 (ip), vehicle: saline",100 % of control
same,T/C,"dose: 200.0 mg/kg/injection, schedule: Q04DX002 (ip), vehicle: saline",99 % of control
same,T/C,"dose: 400.0 mg/kg/injection, schedule: Q04DX002 (ip), vehicle: saline",99 % of control
CCc1nc(N)nc(N)c1-c1ccc(Cl)c(N=NN(C)C)c1,T/C,[1],92 % of control
same,T/C,[2],97 % of control
same,T/C,"dose: 200.0 mg/kg/injection, schedule: Q01DX005 (ip), vehicle: saline with Tween-80",105 % of control
O=C1c2ccccc2C(=O)N1/N=N/N1C(=O)c2ccccc2C1=O,T/C,[8],99 % of control
same,T/C,[3],102 % of control
same,T/C,[4],110 % of control
same,T/C,[5],106 % of control
O=C(O)CCc1c2ccc(=O)c(O)c-2oc2c(O)c(O)ccc12,T/C,[9],104 % of control
same,T/C,[6],98 % of control
same,T/C,[7],103 % of control
N#Cn1c2ccccc2c(=N)c2ccccc21,T/C,[9],103 % of control
same,T/C,[6],102 % of control
CN(C)C(=O)On1cc(Cl)cc1C#N,T/C,"dose: 6.25 mg/kg/injection, schedule: Q04DX003 (ip), vehicle: Klucel (hydroxypropylcellulose) (HPC)",102 % of control
same,T/C,"dose: 12.5 mg/kg/injection, schedule: Q04DX003 (ip), vehicle: Klucel (hydroxypropylcellulose) (HPC)",98 % of control
same,T/C,"dose: 25.0 mg/kg/injection, schedule: Q04DX003 (ip), vehicle: Klucel (hydroxypropylcellulose) (HPC)",100 % of control
same,T/C,"dose: 75.0 mg/kg/injection, schedule: Q04DX003 (ip), vehicle: Klucel (hydroxypropylcellulose) (HPC)",98 % of control
O=C(O)C(=Cc1cccc2ccccc12)C(=O)O,T/C,[8],89 % of control
same,T/C,[3],100 % of control
same,T/C,[4],89 % of control
